Measurements published in PubChem BioAssay (NCI).
Where “and” joins values, the source holds several entries; their conditions need not be identical. Identical values can stand only once.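 Following 48 hours of exposure in 96-well plates, responses at five concentrations were used to interpolate endpoints linearly. The concentration for 50% growth inhibition is given as GI50. TGI: total growth inhibition.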

Experiments:
Assay in all cases: NCI anticancer screen, dose series, 48 h
[1] = system: IGROV1 ovarian
[2] = system: MDA-MB-231 breast
[3] = system: RPMI-8226 leukemia
[4] = system: RXF 393 renal
[5] = system: NCI-H460 lung
[6] = system: HT29 colon
[7] = system: OVCAR-4 ovarian
[8] = system: MALME-3M melanoma
[9] = system: HL-60(TB) leukemia
[10] = system: NCI-H23 lung

Cc1ccc(S(=O)c2ccc([N+](=O)[O-])c3nonc23)cc1 (centres undefined)
GI50 [1]: 12.2 µM | TGI [1]: 27.4 µM | GI50 [2]: 10.1 µM | TGI [2]: 22.6 µM | GI50 [3]: 3.62 µM | TGI [3]: 25.5 µM | GI50 [4]: 2.33 µM | TGI [4]: 5.53 µM | GI50 [5]: 17.7 µM | TGI [5]: 38.6 µM | GI50 [6]: 4.08 µM | TGI [6]: 22 µM | GI50 [7]: 3.08 µM | TGI [7]: 9.24 µM | GI50 [8]: 2.23 µM | TGI [8]: 5.12 µM | GI50 [9]: 3.09 µM | TGI [9]: 8.93 µM | GI50 [10]: 14.1 µM | TGI [10]: 30.4 µM

NC(=O)c1c(NC(=O)c2cccc(C(F)(F)F)c2)sc2c1CCC(=O)C2
GI50 [1]: 0.468 µM | TGI [1]: 3.47 µM | GI50 [2]: 0.379 µM | TGI [2]: 2.73 µM | GI50 [3]: 0.127 µM | TGI [3]: 0.745 µM | GI50 [4]: 0.352 µM | TGI [4]: 2.92 µM | GI50 [5]: 0.512 µM | TGI [5]: > 100 µM | GI50 [6]: 0.378 µM | TGI [6]: > 100 µM | GI50 [7]: 0.292 µM | TGI [7]: 1.25 µM | GI50 [8]: 0.869 µM | TGI [8]: 3.73 µM | GI50 [9]: 0.442 µM | TGI [9]: 6.2 µM | GI50 [10]: 0.317 µM | TGI [10]: 4.29 µM

Cc1cc([C@H](C)Nc2nccc(N3C(=O)OC[C@@H]3[C@H](C)F)n2)ncc1-c1ccnc(C(F)(F)F)c1
GI50 [1]: 25.9 µM | TGI [1]: > 100 µM | GI50 [2]: 34.5 µM | TGI [2]: > 100 µM | GI50 [3]: 16.7 µM | TGI [3]: > 100 µM | GI50 [4]: 11.3 µM | TGI [4]: 86.4 µM | GI50 [5]: 37.4 µM | TGI [5]: > 100 µM | GI50 [6]: 35.6 µM | TGI [6]: > 100 µM | GI50 [7]: 31.2 µM | TGI [7]: > 100 µM | GI50 [8]: 24.2 µM | TGI [8]: > 100 µM | GI50 [9]: 35.7 µM | TGI [9]: > 100 µM | GI50 [10]: 17 µM | TGI [10]: > 100 µM

NCCNc1nc2ccccc2c2c(=O)c3cc(F)cc(Cl)c3sc12
GI50 [1]: 1.51 µM | TGI [1]: 3.01 µM | GI50 [2]: 1.48 µM | TGI [2]: 2.93 µM | GI50 [3]: 1.8 µM | TGI [3]: 3.82 µM | GI50 [4]: 1.62 µM | TGI [4]: 3.16 µM | GI50 [5]: 1.7 µM | TGI [5]: 3.25 µM | GI50 [6]: 1.56 µM | TGI [6]: 3.3 µM | GI50 [7]: 1.7 µM | TGI [7]: 3.41 µM | GI50 [8]: 1.83 µM | TGI [8]: 3.35 µM | GI50 [9]: 1.88 µM | TGI [9]: 3.76 µM | GI50 [10]: 1.75 µM | TGI [10]: 3.42 µM

CC(=O)c1c(Nc2ccc(F)c(F)c2F)[nH]c2c(F)cc(F)cc2c1=O
GI50 [1]: 0.396 µM | TGI [1]: > 47.4 µM | GI50 [2]: 0.285 µM | TGI [2]: 1.77 µM | GI50 [3]: 0.206 µM | TGI [3]: 0.72 µM | GI50 [4]: 0.3 µM | TGI [4]: 2.41 µM | GI50 [5]: 0.331 µM | TGI [5]: 11.2 µM | GI50 [6]: 0.356 µM | TGI [6]: 17.5 µM | GI50 [7]: 0.32 µM | TGI [7]: > 100 µM | GI50 [8]: 0.207 µM | TGI [8]: 0.643 µM | GI50 [9]: 0.372 µM | GI50 [10]: 0.286 µM | TGI [10]: 4.41 µM

COc1ccc(-c2cn(-c3cc(OC)c(OC)c(OC)c3)c(=O)n2-c2ccccc2)cc1
GI50 [1]: 27.6 µM | TGI [1]: > 100 µM | GI50 [2]: > 100 µM | TGI [2]: > 100 µM | GI50 [3]: > 100 µM | TGI [3]: > 100 µM | GI50 [4]: 45.4 µM | TGI [4]: > 100 µM | GI50 [5]: > 100 µM | TGI [5]: > 100 µM | GI50 [6]: 60.6 µM | TGI [6]: > 100 µM | GI50 [7]: 51.7 µM | TGI [7]: > 100 µM | GI50 [8]: 38.5 µM | TGI [8]: > 100 µM | GI50 [9]: 28.1 µM | TGI [9]: > 100 µM | GI50 [10]: > 100 µM | TGI [10]: > 100 µM

COc1ccc(-c2nn(-c3cccc(Cl)c3)cc2-c2cc(-c3cccs3)no2)cc1
GI50 [1]: 4 µM | TGI [1]: 16.2 µM | GI50 [2]: 3.08 µM | TGI [2]: 16.9 µM | GI50 [3]: 5.33 µM | TGI [3]: 61.9 µM | GI50 [4]: 3.49 µM | TGI [4]: 20.1 µM | GI50 [5]: 3.42 µM | TGI [5]: 16.6 µM | GI50 [6]: 3.85 µM | TGI [6]: 15.1 µM | GI50 [7]: 4.48 µM | TGI [7]: 36.4 µM | GI50 [8]: 2.6 µM | TGI [8]: 10.6 µM | GI50 [9]: 4.73 µM | TGI [9]: 38.3 µM | GI50 [10]: 3.82 µM | TGI [10]: 20.8 µM

COc1ccc(-c2nn(-c3cccc(Cl)c3)cc2/C=C2\C(=N)N(c3ccccc3)N=C2N)cc1
GI50 [1]: 2.1 µM | TGI [1]: > 84.8 µM | GI50 [2]: 1.25 µM | TGI [2]: 28.7 µM | GI50 [3]: 0.993 µM | TGI [3]: 46.2 µM | GI50 [4]: 17.5 µM | TGI [4]: > 80.6 µM | GI50 [5]: 0.445 µM | TGI [5]: 7.4 µM | GI50 [6]: 2.57 µM | TGI [6]: 24.5 µM | GI50 [7]: 2.13 µM | TGI [7]: > 89.1 µM | GI50 [8]: 4.9 µM | TGI [8]: 46.1 µM | GI50 [9]: 0.414 µM | TGI [9]: 9.24 µM | GI50 [10]: 4.62 µM | TGI [10]: 43.5 µM

C=C[C@@]1(C)CC(=O)[C@]2(O)[C@@]3(C)[C@@H](O)CCC(C)(C)[C@@H]3[C@H](O)[C@@H](OC(C)=O)[C@@]2(C)O1
TGI [1]: > 100 µM | TGI [2]: > 100 µM | TGI [3]: 95.4 µM | TGI [4]: > 100 µM | TGI [5]: > 100 µM | TGI [6]: > 100 µM | TGI [7]: > 100 µM | TGI [8]: > 100 µM | TGI [9]: > 100 µM | TGI [10]: > 100 µM

Nc1ccc2c(SCC(=O)Nc3ccccc3-c3ccccc3NC(=O)CSc3c4ccccc4nc4cc(N)ccc34)c3ccccc3nc2c1
TGI [1]: 83 µM | TGI [2]: > 84 µM | TGI [3]: 38.6 µM | TGI [4]: 63.5 µM | TGI [5]: 97.8 µM | TGI [6]: > 100 µM | TGI [7]: 78.9 µM | TGI [8]: 56 µM | TGI [9]: 36.6 µM | TGI [10]: 39.5 µM

CCCCCCCCCCCCCCCCCCNC(=O)[C@H]1CSC(c2ccc(F)c(OC)c2)N1 (some centres undefined)
GI50 [1]: 1.43 µM | TGI [1]: 5.05 µM | GI50 [2]: 0.842 µM | TGI [2]: 1.67 µM | GI50 [3]: 0.195 µM | TGI [3]: 0.826 µM | GI50 [4]: 0.894 µM | TGI [4]: 1.6 µM | GI50 [5]: 0.211 µM | TGI [5]: 0.824 µM | GI50 [6]: 1.03 µM | TGI [6]: 2.12 µM | GI50 [7]: 1.38 µM | TGI [7]: 3.62 µM | GI50 [8]: 0.951 µM | TGI [8]: 1.82 µM | GI50 [9]: 0.67 µM | TGI [9]: 1.62 µM | GI50 [10]: 1.42 µM | TGI [10]: 5.05 µM

CC(C)c1ccc2c(c1)c(SC(C)(C)C)c(CC(C)(C)C(=O)O)n2Cc1ccc(Cl)cc1
GI50 [1]: 10.5 µM | TGI [1]: 23.5 µM | GI50 [2]: 12.6 µM | TGI [2]: 27.3 µM | GI50 [3]: 5.17 µM | TGI [3]: 41.8 µM | GI50 [4]: 2.87 µM | TGI [4]: 12.4 µM | GI50 [5]: 4.23 µM | TGI [5]: 16.2 µM | GI50 [6]: 5.75 µM | TGI [6]: 16.9 µM | GI50 [7]: 16.9 µM | TGI [7]: 49 µM | GI50 [8]: 17.6 µM | TGI [8]: 34 µM | GI50 [9]: 8.5 µM | TGI [9]: 30.3 µM | GI50 [10]: 10.8 µM | TGI [10]: 28.1 µM

C=C1C(=O)C23CC1CCC2C12CO[C@@]3(O)[C@@H](O)C1C(C)(C)C=CC2=O (some centres undefined)
TGI [2]: 12 µM | TGI [3]: 21.7 µM | TGI [4]: 1.34 µM | GI50 [5]: 14.7 µM | GI50 [6]: 2.12 µM | TGI [6]: 0.756 µM and 5.49 µM | GI50 [8]: 6.11 µM | GI50 [9]: 0.434 µM | GI50 [10]: 2.9 µM | TGI [10]: 1.42 µM and 7.88 µM
